“Also recorded” adds a separate entry of the source.
Experiments:
[1] = system: rabbit model of microshunt implant surgery; test: Rabbit model of microshunt implant surgery, MMC high/low dose and low dose MMC with VPA; assay type: in vivo
[2] = system: mouse model of conjunctival scarring; test: Mouse model of conjunctival scarring, quantitative multiphoton imaging and histology of collagen; assay type: in vivo
Text: The conjunctiva was dissected to reveal the sclera where an incision was made into the anterior chamber. The resulting fistula allowed aqueous humor to exit into and underneath the conjunctiva. The accumulated fluid underneath the sutured conjunctiva was observed as a conjunctival bleb. To determine whether VPA has the capacity to protect collagen architecture, quantitative multiphoton imaging as described in Xu S et al (J. Hepatol., 2014, 61(2):260-269) was used to measure collagen properties in the mouse model of conjunctival scarring treated with VPA. The onset of scarring, as indicated by peak production of collagen mRNA, was measured on day 7 post-surgery. The mature scar was measured on day 14 post-surgery when collagen mRNA production was subdued. To study the impact of VPA on the collagen architecture during the onset of scarring on day 7, mice were injected with 300 μg/ml VPA directly into the operated area immediately after surgery and on day 2. To determine the effect of VPA in the mature scar on day 14, mice were injected as above, with an additional injection on day 7. By this method, it could be readily observed in histologically-stained sections as well as multiphoton scans that collagen fibers in the VPA-treated eyes were thinner than those in the PBS-treated control eyes. Exemplary collagen fibers showing the thinning effect of VPA are indicated by the white arrowheads in FIG. 2.

[3] = system: primary rabbit conjunctival fibroblasts; test: Type I collagen (Col1a1) expression and cell growth in primary rabbit conjunctival fibroblasts; assay type: cell-based
Experimental: For application in the rabbit model of microshunt implant surgery (PRESERFLO® MicroShunt, Santen), the dosage of VPA to be used was determined using primary rabbit conjunctival fibroblasts for (1) effectiveness in reducing type I collagen, and (2) non-toxicity on cell growth, as shown in FIG. 6.

[4] = system: human Tenons conjunctival fibroblasts; test: Type I collagen (Col1a1) expression in human Tenons conjunctival fibroblasts; assay type: cell-based; settings: human Tenons conjunctival fibroblasts from three donors
Experimental: Likewise, for application in human, the dosage of VPA to be used was determined as in the rabbit model for effectiveness in reducing type I collagen. The effect of VPA on type I collagen expression in human Tenons conjunctival fibroblasts derived from three independent donors was investigated, and the results are as shown in FIG. 6B.

[5] = system: rabbit model of microshunt implant surgery; test: Rabbit model of microshunt implant surgery (PRESERFLO MicroShunt), VPA alone vs PBS; assay type: in vivo
Experimental: The rabbit model of microshunt implant surgery using the PRESERFLO® MicroShunt (Santen) was performed with a total of 11 injections of 300 μg/ml VPA, immediately after surgery, and once daily for first 7 days, followed by injections on days 10, 14 and 21 post-surgery. The rabbit eyes were evaluated by slit lamp photography (FIG. 7).
Confocal microscopy was used to correlate bleb appearance and function. It is known that significant positively correlating features include cyst size and vasculature density/tortuosity.

[6] = 300 μg/ml VPA, 28 days post-surgery, vs PBS
[7] = 300 μg/ml VPA, day 28 rabbit tissues
[8] = 300 μg/ml VPA, day 28 rabbit tissues, vs PBS controls

CO[C@@]12[C@H](COC(N)=O)C3=C(C(=O)C(C)=C(N)C3=O)N1C[C@@H]1N[C@@H]12 [MMC, mitomycin C] was tested, and the “mRNA expression of Col1a1” value ([1]; 0.1 mg/ml MMC, day 28 rabbit tissues, vs 0.4 mg/ml MMC and 0.1 mg/ml MMC+VPA, n=5) was “significantly higher”, the “bleb cysts (confocal microscopy)” value ([1]; rabbit, in vivo) was “large cysts; also recorded: smaller cysts” and the “bleb morphology (slit lamp)” value ([1]; rabbit, in vivo) was “starkly avascular and cystic bleb; also recorded: less avascular and mildly cystic bleb”. For the same compound, the “collagen fibers around implant tip (picrosirius red, polarised light)” value ([1]; rabbit, in vivo) was “thick collagen fibers encapsulating the implant”.
In the case of CCCC(CCC)C(=O)O [VPA, valproic acid], the “collagen fibers in histologically-stained sections and multiphoton scans” value ([2]; 300 μg/ml VPA injected into operated area, vs PBS-treated control eyes) is reported as “thinner”, the “number of collagen fibers per mm^2” value ([2]; 300 μg/ml VPA, both time points (days 7 and 14), vs PBS) is reported as “significantly reduced” and the “Collagen Reticulation Index (CRI)” value ([2]; 300 μg/ml VPA, day 7, vs PBS treatment) is reported as “significant reduction”. The “Collagen Reticulation Index (CRI)” value ([2]; 300 μg/ml VPA, day 14 mature scar) was “lack of effect”, the “collagen area ratio (CAR)” value ([2]; 300 μg/ml VPA, days 7 and 14 post-surgery, vs PBS) was “significantly reduced” and the “collagen thickness (quantitative multiphoton analyses)” value ([2]; 300 μg/ml VPA, operated conjunctival sections, vs PBS) was “reduced”. For the same compound, the “collagen reticulation (measured as CRI and CARD)” value ([2]; 300 μg/ml VPA, post-operative conjunctiva) was “not induced”, the “collagen fiber density (CFD)” value ([2]; 300 μg/ml VPA, vs PBS controls) was “lack of significant difference” and the “lowest concentration effective in significantly reducing Col1a1 expression without disrupting cell proliferation” value [3] was 300 µg/mL. The “lowest concentration effective in significantly reducing Col1a1 expression without disrupting cell proliferation” value [4] was 300 µg/mL, the “bleb collagen fiber packing (confocal microscopy)” value ([5]; 300 μg/ml VPA, 28 days post-surgery, PBS tightly-packed) was “loosely packed collagen fibers” and the “bleb vasculature (confocal microscopy)” value ([5]; 300 μg/ml VPA, 28 days post-surgery, PBS tortuous) was “straight”. For the same compound, the “bleb collagen characteristics (histology)” value ([5]; 300 μg/ml VPA, 28 days post-surgery, compared to normal tissue) was “thinner and similarly organized array of collagen fibers”, the “COL1A1 and fibronectin fibers (immunofluorescent staining)” value [5, 6] was “thinner and more diffusely distributed fibers” and the “bleb cysts (confocal microscopy)” value [5, 6] was “large cysts”. The Smad6 expression [5, 7] was “significantly induced”, the Vegfa expression [5, 7] was “significantly elevated” and the collagen transcript expression [5, 8] was “significantly reduced”. The fibronectin transcript expression [5, 8] was “significantly reduced”, the “time a filtering bleb was maintained (slit lamp)” value ([5]; 11 injections of 300 μg/ml VPA, PBS bleb failed by day 14) was “at least 28 days” and the “collagen fibers around implant tip (picrosirius red, polarised light)” value ([1]; VPA 300 μg/mL with 0.1 mg/ml MMC (condition c)) was “reduced the presence of the thick fibers encapsulating the implant”.
